# ChEMBL document CHEMBL3885861, “Open TG-GATES”
# Species: Rattus norvegicus
# Experiment: Open TG-GATES - Regimen: Single
# Assay type: toxicity, organism-based, Sprague-Dawley
# Parameters: regimen Single, gender Male, age 6 weeks
# Settings: in vivo, ip, route intraperitoneal injection; for Eos / Fbg / Hb / Lym / MCH / MCHC / MCV / Mono / Neu / PT / Plat / RBC / Ret / WBC / APTT / Bas / Ht: tissue Blood; for KIDNEY_L / KIDNEY_R / KIDNEY_TOTAL: tissue Kidney; for LIVER: tissue Liver
# [1] = 0.01 mg/kg, 3 h, dose 10 ug/Kg, dose level Low
# [2] = 0.01 mg/kg, 3 h, tissue Plasma, dose 10 ug/Kg, dose level Low
# [3] = 0.01 mg/kg, 6 h, dose 10 ug/Kg, dose level Low
# [4] = 0.01 mg/kg, 6 h, tissue Plasma, dose 10 ug/Kg, dose level Low
# [5] = 0.01 mg/kg, 9 h, dose 10 ug/Kg, dose level Low
# [6] = 0.01 mg/kg, 9 h, tissue Plasma, dose 10 ug/Kg, dose level Low
# [7] = 0.01 mg/kg, 24 h, dose 10 ug/Kg, dose level Low
# [8] = 0.01 mg/kg, 24 h, tissue Plasma, dose 10 ug/Kg, dose level Low
substance,measurement,setting,value
LPS,Eos,[1],0%
same,Fbg,[1],249 mg/dL
same,Hb,[1],12.9 g/dL
same,Lym,[1],66%
same,MCH,[1],21 pg
same,MCHC,[1],32.9%
same,MCV,[1],63.9 fL
same,Mono,[1],2.3%
same,Neu,[1],30.3%
same,PT,[1],15.6 s
same,Plat,[1],106.2 x10_4/uL
same,RBC,[1],614.3 x10_4/ul
same,Ret,[1],9.4%
same,WBC,[1],59.5 x10_2/uL
same,KIDNEY_L,[1],0.9 g
same,KIDNEY_R,[1],0.9 g
same,KIDNEY_TOTAL,[1],1.8 g
same,LIVER,[1],8.5 g
same,ALP,[2],1371 IU/L
same,ALT,[2],39.3 IU/L
same,AST,[2],80.7 IU/L
same,BUN,[2],9.3 mg/dL
same,CRE,[2],0.2 mg/dL
same,DBIL,[2],0.0033 mg/dL
same,GLC,[2],151.7 mg/dL
same,IP,[2],9.1 mg/dL
same,K,[2],3.9 meq/L
same,LDH,[2],87.7 IU/L
same,PL,[2],141.3 mg/dL
same,RALB,[2],2.4 g/dL
same,TBIL,[2],0.0433 mg/dL
same,TC,[2],75.3 mg/dL
same,TG,[2],50.7 mg/dL
same,TP,[2],5.2 g/dL
same,gamma-GTP,[2],0.7 IU/L
same,TERMINAL_BW,[3],188.9 g
same,APTT,[3],20.9 s
same,Bas,[3],0%
same,Eos,[3],1%
same,Fbg,[3],308 mg/dL
same,Ht,[3],40.2%
same,Lym,[3],27%
same,MCH,[3],21 pg
same,MCV,[3],63.3 fL
same,Mono,[3],1%
same,Neu,[3],71%
same,Plat,[3],84.5 x10_4/uL
same,RBC,[3],634.3 x10_4/ul
same,Ret,[3],7.8%
same,WBC,[3],67.1 x10_2/uL
same,KIDNEY_L,[3],0.9 g
same,KIDNEY_R,[3],0.9 g
same,KIDNEY_TOTAL,[3],1.7 g
same,LIVER,[3],7.6 g
same,ALP,[4],1287.3 IU/L
same,ALT,[4],58.7 IU/L
same,AST,[4],96.7 IU/L
same,BUN,[4],8.3 mg/dL
same,CRE,[4],0.2 mg/dL
same,Ca,[4],9.9 mg/dL
same,DBIL,[4],0.0167 mg/dL
same,GLC,[4],150.7 mg/dL
same,IP,[4],9.5 mg/dL
same,K,[4],3.9 meq/L
same,LDH,[4],75.3 IU/L
same,Na,[4],139.7 meq/L
same,PL,[4],154.3 mg/dL
same,RALB,[4],2.5 g/dL
same,TBIL,[4],0.0667 mg/dL
same,TC,[4],91.7 mg/dL
same,TG,[4],27.3 mg/dL
same,TP,[4],5.4 g/dL
same,gamma-GTP,[4],1.7 IU/L
same,TERMINAL_BW,[5],187.9 g
same,APTT,[5],16.6 s
same,Bas,[5],0%
same,Eos,[5],0%
same,Fbg,[5],373 mg/dL
same,Ht,[5],40.9%
same,Lym,[5],58.3%
same,MCHC,[5],33%
same,MCV,[5],64.5 fL
same,Mono,[5],2%
same,Neu,[5],38.7%
same,PT,[5],16 s
same,Plat,[5],105.1 x10_4/uL
same,RBC,[5],633.7 x10_4/ul
same,Ret,[5],8.7%
same,WBC,[5],86.6 x10_2/uL
same,KIDNEY_L,[5],0.9 g
same,KIDNEY_R,[5],0.8 g
same,KIDNEY_TOTAL,[5],1.7 g
same,LIVER,[5],7.1 g
same,ALP,[6],1456.3 IU/L
same,ALT,[6],37 IU/L
same,AST,[6],77.3 IU/L
same,BUN,[6],6.7 mg/dL
same,CRE,[6],0.2 mg/dL
same,DBIL,[6],0.0067 mg/dL
same,GLC,[6],162.7 mg/dL
same,IP,[6],9.8 mg/dL
same,K,[6],3.6 meq/L
same,LDH,[6],61 IU/L
same,Na,[6],143.7 meq/L
same,PL,[6],151 mg/dL
same,RALB,[6],2.5 g/dL
same,TBIL,[6],0.0567 mg/dL
same,TC,[6],89 mg/dL
same,TG,[6],21 mg/dL
same,TP,[6],5.4 g/dL
same,gamma-GTP,[6],1 IU/L
same,TERMINAL_BW,[7],198.5 g
same,Bas,[7],0%
same,Eos,[7],1%
same,Fbg,[7],435.3 mg/dL
same,Hb,[7],13.6 g/dL
same,Lym,[7],66.3%
same,MCH,[7],21 pg
same,MCHC,[7],32.7%
same,MCV,[7],64.2 fL
same,Mono,[7],2.3%
same,Neu,[7],29%
same,PT,[7],14.6 s
same,Plat,[7],77.7 x10_4/uL
same,RBC,[7],646.7 x10_4/ul
same,Ret,[7],7.3%
same,WBC,[7],85.5 x10_2/uL
same,KIDNEY_L,[7],0.9 g
same,KIDNEY_R,[7],0.9 g
same,KIDNEY_TOTAL,[7],1.8 g
same,LIVER,[7],9.1 g
same,ALP,[8],2203 IU/L
same,ALT,[8],39.3 IU/L
same,AST,[8],71.7 IU/L
same,BUN,[8],16.3 mg/dL
same,CRE,[8],0.2 mg/dL
same,DBIL,[8],0.01 mg/dL
same,GLC,[8],189 mg/dL
same,IP,[8],8.8 mg/dL
same,K,[8],4.5 meq/L
same,LDH,[8],77.3 IU/L
same,PL,[8],168 mg/dL
same,RALB,[8],2.6 g/dL
same,TBIL,[8],0.0633 mg/dL
same,TC,[8],94.7 mg/dL
same,TG,[8],52.3 mg/dL
same,TP,[8],5.6 g/dL
same,gamma-GTP,[8],1 IU/L
same,TERMINAL_BW,"0.3 mg/kg, 3 h, dose 300 ug/Kg, dose level Middle",194.5 g
